PubChem BioAssay (NCI)
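Assay format: 96-well plates, 48-hour exposure. The concentration for full growth arrest is given as TGI.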

Tests used:
Test in all cases: inhibition of tumour cell growth, NCI panel, 48 h
HOP-62 NSCLC = tested on: HOP-62 NSCLC
COLO 205 colon = tested on: COLO 205 colon
MOLT-4 leukemia = tested on: MOLT-4 leukemia
SNB-75 CNS = tested on: SNB-75 CNS
OVCAR-8 ovarian = tested on: OVCAR-8 ovarian
CAKI-1 renal = tested on: CAKI-1 renal
CCRF-CEM leukemia = tested on: CCRF-CEM leukemia
M14 melanoma = tested on: M14 melanoma
IGROV1 ovarian = tested on: IGROV1 ovarian
HCT-116 colon = tested on: HCT-116 colon
RPMI-8226 leukemia = tested on: RPMI-8226 leukemia
HCT-15 colon = tested on: HCT-15 colon
HCC-2998 colon = tested on: HCC-2998 colon
OVCAR-4 ovarian = tested on: OVCAR-4 ovarian
HL-60(TB) leukemia = tested on: HL-60(TB) leukemia
KM12 colon = tested on: KM12 colon
A549 NSCLC = tested on: A549 NSCLC
HT29 colon = tested on: HT29 colon
NCI-H522 lung = tested on: NCI-H522 lung
U251 CNS = tested on: U251 CNS
SNB-19 CNS = tested on: SNB-19 CNS
BT-549 breast = tested on: BT-549 breast
MDA-MB-435 = tested on: MDA-MB-435
MDA-N = tested on: MDA-N
NCI-H460 lung = tested on: NCI-H460 lung
SW-620 colon = tested on: SW-620 colon
HOP-92 NSCLC = tested on: HOP-92 NSCLC
SF-295 CNS = tested on: SF-295 CNS
UO-31 renal = tested on: UO-31 renal
HS 578T breast = tested on: HS 578T breast
SF-539 CNS = tested on: SF-539 CNS
SN12C renal = tested on: SN12C renal
UACC-62 melanoma = tested on: UACC-62 melanoma
NCI/ADR-RES ovarian = tested on: NCI/ADR-RES ovarian
SK-MEL-2 melanoma = tested on: SK-MEL-2 melanoma
ACHN renal = tested on: ACHN renal
SK-MEL-28 melanoma = tested on: SK-MEL-28 melanoma
SK-MEL-5 melanoma = tested on: SK-MEL-5 melanoma
UACC-257 melanoma = tested on: UACC-257 melanoma
DU-145 prostate = tested on: DU-145 prostate
NCI-H23 lung = tested on: NCI-H23 lung
EKVX NSCLC = tested on: EKVX NSCLC
T-47D breast = tested on: T-47D breast
SR leukemia = tested on: SR leukemia
OVCAR-3 ovarian = tested on: OVCAR-3 ovarian
LOX IMVI melanoma = tested on: LOX IMVI melanoma
786-0 renal = tested on: 786-0 renal
PC-3 prostate = tested on: PC-3 prostate
MDA-MB-231 breast = tested on: MDA-MB-231 breast
TK-10 renal = tested on: TK-10 renal
OVCAR-5 ovarian = tested on: OVCAR-5 ovarian
MCF7 breast = tested on: MCF7 breast
A498 renal = tested on: A498 renal
SF-268 CNS = tested on: SF-268 CNS
SK-OV-3 ovarian = tested on: SK-OV-3 ovarian
MALME-3M melanoma = tested on: MALME-3M melanoma
NCI-H226 lung = tested on: NCI-H226 lung
K-562 leukemia = tested on: K-562 leukemia
RXF 393 renal = tested on: RXF 393 renal

Molecule `COc1cc(OC)nc(-n2c(N)c(C#N)c3ccc([N+](=O)[O-])cc3c2=O)n1` has a TGI (HOP-62 NSCLC) of over 100 µM, a TGI (COLO 205 colon) of over 100 µM and a TGI (MOLT-4 leukemia) of over 100 µM. It also gave a TGI (SNB-75 CNS) of over 100 µM, a TGI (OVCAR-8 ovarian) of over 100 µM and a TGI (CAKI-1 renal) of over 100 µM. It also gave a TGI (CCRF-CEM leukemia) of over 100 µM, a TGI (M14 melanoma) of over 100 µM and a TGI (IGROV1 ovarian) of over 100 µM. For the same molecule, the TGI (HCT-116 colon) was over 100 µM, the TGI (RPMI-8226 leukemia) was over 100 µM and the TGI (HCT-15 colon) was over 100 µM. The TGI (HCC-2998 colon) was over 100 µM, the TGI (OVCAR-4 ovarian) was over 100 µM and the TGI (HL-60(TB) leukemia) was over 100 µM. The TGI (KM12 colon) was over 100 µM, the TGI (A549 NSCLC) was over 100 µM and the TGI (HT29 colon) was over 100 µM. The TGI (NCI-H522 lung) was 55.4 µM, the TGI (U251 CNS) was over 100 µM and the TGI (SNB-19 CNS) was over 100 µM. It also gave a TGI (BT-549 breast) of over 100 µM, a TGI (MDA-MB-435) of over 100 µM and a TGI (MDA-N) of over 100 µM. It also gave a TGI (NCI-H460 lung) of over 100 µM, a TGI (SW-620 colon) of over 100 µM and a TGI (HOP-92 NSCLC) of over 100 µM. For the same molecule, the TGI (SF-295 CNS) was over 100 µM, the TGI (UO-31 renal) was over 100 µM and the TGI (HS 578T breast) was over 100 µM. The TGI (SF-539 CNS) was over 100 µM, the TGI (SN12C renal) was over 100 µM and the TGI (UACC-62 melanoma) was over 100 µM. The TGI (NCI/ADR-RES ovarian) was over 100 µM, the TGI (SK-MEL-2 melanoma) was over 100 µM and the TGI (ACHN renal) was over 100 µM. It also gave a TGI (SK-MEL-28 melanoma) of over 100 µM, a TGI (SK-MEL-5 melanoma) of over 100 µM and a TGI (UACC-257 melanoma) of over 100 µM. For the same molecule, the TGI (DU-145 prostate) was over 100 µM, the TGI (NCI-H23 lung) was over 100 µM and the TGI (EKVX NSCLC) was over 100 µM. It also gave a TGI (T-47D breast) of over 100 µM, a TGI (SR leukemia) of over 100 µM and a TGI (OVCAR-3 ovarian) of over 100 µM. It also gave a TGI (LOX IMVI melanoma) of over 100 µM, a TGI (786-0 renal) of over 100 µM and a TGI (PC-3 prostate) of over 100 µM. For the same molecule, the TGI (MDA-MB-231 breast) was over 100 µM, the TGI (TK-10 renal) was over 100 µM and the TGI (OVCAR-5 ovarian) was over 100 µM. It also gave a TGI (MCF7 breast) of over 100 µM, a TGI (A498 renal) of over 100 µM and a TGI (SF-268 CNS) of over 100 µM.
For `CC1CC2OC(=O)C(C)C2CC2(C)C(OC3OC(CO)C(O)C(O)C3O)OCCC12` (configuration not stated), the TGI (HOP-62 NSCLC) was over 100 µM, the TGI (COLO 205 colon) was over 100 µM and the TGI (MOLT-4 leukemia) was over 100 µM. The TGI (SNB-75 CNS) was over 100 µM, the TGI (OVCAR-8 ovarian) was over 100 µM and the TGI (CAKI-1 renal) was over 100 µM. It also gave a TGI (CCRF-CEM leukemia) of over 100 µM, a TGI (SK-OV-3 ovarian) of over 100 µM and a TGI (M14 melanoma) of over 100 µM. The TGI (IGROV1 ovarian) was over 100 µM, the TGI (HCT-116 colon) was over 100 µM and the TGI (RPMI-8226 leukemia) was over 100 µM. The TGI (MALME-3M melanoma) was over 100 µM, the TGI (HCT-15 colon) was over 100 µM and the TGI (NCI-H226 lung) was over 100 µM. For the same molecule, the TGI (HCC-2998 colon) was over 100 µM, the TGI (OVCAR-4 ovarian) was over 100 µM and the TGI (HL-60(TB) leukemia) was over 100 µM. For the same molecule, the TGI (KM12 colon) was over 100 µM, the TGI (K-562 leukemia) was over 100 µM and the TGI (A549 NSCLC) was over 100 µM. It also gave a TGI (HT29 colon) of over 100 µM, a TGI (NCI-H522 lung) of over 100 µM and a TGI (U251 CNS) of over 100 µM. For the same molecule, the TGI (RXF 393 renal) was over 100 µM, the TGI (SNB-19 CNS) was over 100 µM and the TGI (BT-549 breast) was 29.4 µM. It also gave a TGI (MDA-MB-435) of over 100 µM, a TGI (MDA-N) of over 100 µM and a TGI (NCI-H460 lung) of over 100 µM. The TGI (SW-620 colon) was over 100 µM, the TGI (HOP-92 NSCLC) was over 100 µM and the TGI (SF-295 CNS) was over 100 µM. For the same molecule, the TGI (HS 578T breast) was over 100 µM, the TGI (SF-539 CNS) was over 100 µM and the TGI (SN12C renal) was over 100 µM. For the same molecule, the TGI (UACC-62 melanoma) was 30.6 µM, the TGI (NCI/ADR-RES ovarian) was over 100 µM and the TGI (SK-MEL-2 melanoma) was over 100 µM. For the same molecule, the TGI (ACHN renal) was over 100 µM, the TGI (SK-MEL-28 melanoma) was over 100 µM and the TGI (SK-MEL-5 melanoma) was over 100 µM. The TGI (UACC-257 melanoma) was over 100 µM, the TGI (DU-145 prostate) was over 100 µM and the TGI (NCI-H23 lung) was over 100 µM. For the same molecule, the TGI (EKVX NSCLC) was over 100 µM, the TGI (T-47D breast) was over 100 µM and the TGI (SR leukemia) was over 100 µM. It also gave a TGI (OVCAR-3 ovarian) of over 100 µM, a TGI (LOX IMVI melanoma) of over 100 µM and a TGI (786-0 renal) of over 100 µM. For the same molecule, the TGI (PC-3 prostate) was over 100 µM, the TGI (MDA-MB-231 breast) was over 100 µM and the TGI (TK-10 renal) was over 100 µM. It also gave a TGI (OVCAR-5 ovarian) of over 100 µM, a TGI (MCF7 breast) of over 100 µM and a TGI (A498 renal) of over 100 µM. It also gave a TGI (SF-268 CNS) of over 100 µM.
